Here are results for 71 compounds from PubChem BioAssay AID179 (DTP/NCI, 2004).

The test system of the assay is CEM cells HIV-1 protection, formazan growth assay. The assay is described as follows: NCI AIDS Antiviral Assay. The note with it: for pIC50: measured here: growth of uninfected CEM cells. The essentials: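 Human CEM cells, uninfected and HIV-1-infected, exposed to five drug concentrations; growth measured by soluble formazan assay and scored as percent protection from infection, with protecting compounds retested.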

pEC50, pIC50: −log10 of the molar value. Values joined by “and” are separate entries in the source; they are usually repeats but may differ in a detail not shown here. Equal entries are not always repeated. Active and inactive are the calls of the source.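 The calls were made as follows: active = compounds giving half or more protection of infected cells from virus-caused growth loss, again on retest; inactive = the rest.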 A value given as a limit tells only on which side of the number the result lay.

The pEC50 is −log10 of the EC50, conventionally taken in molar units. As a reminder, the pIC50 is the IC50 on a negative log10 scale, so that one unit is a factor of ten. The low end stands for a high IC50, the high end for a low IC50. For the compound `c1ccc2[nH]c(CNc3ccc(C4C[Se]N=N4)cc3)nc2c1` (stereo not drawn), the pEC50 was < 4.69 and the pIC50 is < 4.69.

For the compound `Cc1cccc(NC(=O)/C=C/c2ccc(N(CCC#N)CCC#N)cc2C)c1`, the pEC50 is < 3.17 and the pIC50 was < 3.17.

Regarding `CC(=O)OC1COC(n2c(-c3ccc(Cl)cc3)cc(-c3ccccc3)c(C#N)c2=S)C(OC(C)=O)C1OC(C)=O` (stereo not drawn), the pEC50 was < 3.70 and the pIC50 was < 3.70.

Regarding `COC1(C)OC23C(=O)N(C)C(=O)N(C)C2(O1)N(C(C)=O)C(=O)N3C` (stereo not drawn), the pEC50 is < 3.70 and the pIC50 is < 3.70.

On to `COC(=O)/C(=N\NC(N)=O)C(C(=O)C(=O)Nc1ccccc1C(=O)OC)c1nc2ccc(C(=O)c3ccccc3)cc2[nH]c1=O` (stereo not drawn), for which the outcome was inactive.

For `CC1NCc2c1[nH]cnc2=S` (stereo not drawn), the pEC50 was < 3.59 and the pIC50 was < 3.59.

As for `O=S(=O)(c1ccccc1)C1CC(c2nc3ccccc3[nH]2)=NO1` (stereo not drawn), the pEC50 was < 3.70 and the pIC50 is 3.88.

`O=C1c2ccccc2C(=O)N1/N=C\c1ccc(O)cc1`: the pEC50 is < 3.87 and the pIC50 is < 3.87.

On to `O=C(NNC(=S)NCc1ccccc1)c1csc(NC(=S)NC2CCCCC2)n1`, for which the pEC50 was < 3.70 and the pIC50 is 4.24.

Take `CCO/C(CCn1[nH]c(=O)c(Cl)c(Cl)c1=O)=N\NC(=O)C(=O)NN`: the pEC50 was < 5.15 and the pIC50 was < 5.15.

In the case of `COC(=O)C1CC=CCCC1=O` (stereo not drawn), the pEC50 was < 3.11 and the pIC50 was 3.56.

With `CC[C@H](CCCCC1CC[C@@H]2CC(=O)C[C@H]12)OC` (stereo partly drawn), the pEC50 was < 3.70 and the pIC50 was < 3.70.

For the compound `CC1(C)CSCC(C)(C)C2(C=CC=CC=N2)C1=O` (stereo not drawn), the pEC50 was < 3.72 and the pIC50 was 4.58.

Regarding `COc1cc2c(c3oc(=O)cc(-c4ccccc4)c13)C(=O)[C@H](C)[C@@H](C)O2`, the pEC50 was < 3.70 and the pIC50 was < 3.70.

With `C[C@@]1(CO)OC(=O)N2CCC[C@H]21`, the pEC50 is < 2.84 and the pIC50 was < 2.84.

Take `CC1=C(C#N)C(N)=C2C(C)=C(C#N)C(N)=C12`: the outcome was inactive.

`CC(=O)Nc1ccc([As](=O)(O)O)cc1[N+](=O)[O-]`: the pEC50 is < 3.70 and the pIC50 was < 3.70.

As for `Cc1ccc2c(n1)C(N1CCCC1)=CC(=O)C2=O`, the result was inactive.

Turning to `O=c1c(/C=N/OCCCCO/N=C/c2cc3c(cc2[N+](=O)[O-])OCO3)coc2c(Cl)cc(Cl)cc12`, the pEC50 was < 3.70 and the pIC50 was 4.12.

As for `C=C1CC(CC)(CCN2C(=O)c3ccccc3C2=O)OC1=O` (stereo not drawn), the pEC50 is < 3.68 and the pIC50 is 4.98.

Take `O=[N+]([O-])c1c(Br)cc(Br)c2c1Nc1c(ccc(Cl)c1Cl)S2`: the pEC50 was < 3.70 and the pIC50 was 5.31.

On to `COc1cc(O)c(/C=N\O)c(OC)c1`, for which the pEC50 was < 3.04 and the pIC50 was 4.08.

Consider `Cc1c2ccc(Cl)cc2nc2ccc(OCCCCCCNC(=O)[C@@H](N)CCCN=C(N)N)cc12`, for which the pEC50 was < 4.00 and the pIC50 was 4.81.

As for `CCOC(=O)CC[C@H](NC(=O)c1ccc(CNc2nc3cc(C(F)(F)F)ccc3nc2C(=O)OCC)cc1)C(=O)OCC`, the pEC50 was < 4.00 and the pIC50 was < 4.00.

Take `O=[N+]([O-])C1C2C=CC(C2)[C@H]1c1ccccc1Cl` (stereo partly drawn): the outcome was inactive.

Regarding `COC(=O)/C(=N\NC(=S)NN)C(C(=O)C(=O)Nc1ccccc1C(N)=O)c1nc2ccccc2[nH]c1=O` (stereo not drawn), the pEC50 is < 3.46 and the pIC50 is < 3.46.

`CC(=O)OC1OC(=O)C(C)(C(C)=O)C1C` (stereo not drawn): the result was inactive.

Turning to `CC(C)CC(NC(=O)OC(C)(C)C)C(=O)Nc1ccc(Nc2nc(F)nc(-c3c4ccccc4c4n3CCS4)n2)cc1` (stereo not drawn), the pEC50 is < 5.22 and the negative-log IC50 (pIC50) is < 5.22.

Consider `O=C1C2C(C(=O)N1c1ccccc1)C1(c3ccccc3)OC2(c2ccccc2)c2ccccc21` (stereo not drawn), for which the result was inactive.

For `Cc1ccc(-n2cc(-c3ccc(Cl)cc3)c3c2N=CN2NC(c4ccco4)=NC32)cc1` (stereo not drawn), the pEC50 was < 4.00 and the pIC50 is 4.13.

As to `CCOC(=O)c1[nH]c2ccccc2c1C(=O)C[C@H](NC(=O)C(F)(F)F)C(=O)OC`, the pEC50 was < 3.70 and the pIC50 is < 3.70.

For the compound `CC(=O)/C(=C/n1c(=S)[nH]c2ccc([N+](=O)[O-])cc21)C(=O)Nc1ccc(Cl)cc1`, the pEC50 is < 4.00 and the pIC50 was < 4.00.

`CCCc1cc(-c2ccc(N=Nc3cc(S(=O)(=O)O)c4ccccc4c3N)c(CCC)c2)ccc1N=Nc1cc(S(=O)(=O)O)c2ccccc2c1N`: the pEC50 was 3.98 and the pIC50 was 3.74.

`CN(C)CC[N+]1=Nc2cccc3cccc(c23)N1`: the result was inactive.

Take `CCOC(=O)C1(C#N)C(C#N)(C#N)C1(C#N)C#N`: the pEC50 is < 3.70 and the negative logarithm of the IC50 (pIC50) was < 3.70.

Consider `N#C/C(=C\c1ccc(O)c(O)c1)C(=O)NCCCCNC(=O)/C(C#N)=C/c1ccc(O)c(O)c1`, for which the pEC50 was < 3.70 and the pIC50 was 4.62.

As to `S=C1CC(c2ccccc2)Sc2ccc(Cl)cc2N1` (stereo not drawn), the pEC50 was < 3.70 and the pIC50 is 4.46.

With `COc1ccccc1NC(=O)/C(=C/n1c(=S)sc2ccccc21)C(C)=O`, the pEC50 was < 3.70 and the pIC50 is 3.94.

On to `Cc1ccc(S(=O)(=O)NC(=O)NC2=NC(C)(C)N(c3ccc(Cl)c(Cl)c3)C(N)=N2)cc1`, for which the pEC50 was < 3.70 and the pIC50 was 5.37.

Consider `O=C(CO)CC(=O)C(=O)Nc1cccc(C(F)(F)F)c1`, for which the outcome was inactive.

For `CC1OC(n2cnc3c(=O)[nH]cnc32)C(O)C(O)C1O` (stereo not drawn), the pEC50 is < 3.70 and the pIC50 is < 3.70.

Regarding `O=[N+]([O-])c1ccc(S(=O)(=O)NCCSSCCNS(=O)(=O)c2ccc([N+](=O)[O-])cc2)cc1`, the pEC50 is < 3.70 and the pIC50 is 4.98.

For `CC(C)(c1ccccc1)C(C)(C)c1nc(-c2ccccc2)cc(-c2ccccc2)n1`, the pEC50 is < 5.43 and the pIC50 is < 5.43.

In the case of `Cc1ccc(C)c(N=C2NC(=O)C(CC(=O)Nc3ccc(Cl)cc3Cl)S2)c1` (stereo not drawn), the pEC50 was < 4.35 and the pIC50 was 4.71.

Regarding `N#C/C(=C/c1cccnc1)C(=O)c1ccccc1`, the pEC50 is < 3.40 and the pIC50 was 4.17.

Consider `CC1=C(C(=O)OC2CC3CCC2(C)C3(C)C)C2Nc3ccccc3N(C)C2O1` (stereo not drawn), for which the pEC50 was < 3.70 and the pIC50 is 5.19.

Take `O=c1oc2ccccc2c(O)c1C(c1ccco1)c1c(O)c2ccccc2oc1=O`: the pEC50 was < 3.70 and the pIC50 is 4.47.

Take `O=C1/C(=C/c2ccccc2)CCC/C1=C\c1ccc(O)c(CN2CCCCC2)c1`: the pEC50 was < 3.70 and the pIC50 was 5.93.

Turning to `CCOC(=O)Cc1csc(N=Nc2c(O)[nH]c3ccccc23)n1`, the pEC50 was < 3.70 and the pIC50 was 3.96.

`N#Cc1ccc(Oc2nc3ccccc3nc2C(=O)O)cc1`: the pEC50 is < 3.70 and the pIC50 was < 3.70.

As to `CC(=O)CCn1ncc(Cl)c(Cl)c1=O`, the pEC50 was < 3.26 and the pIC50 is 5.16.

Take `COc1ccc2c3c1O[C@]1(C)C34CCN(C)C(C2)C42C=C[C@@]1(OC)c1c(O)ccc(O)c12`: the pEC50 is < 4.22 and the pIC50 is < 4.22.

For the compound `CC1=CC2Cc3ccoc3C(C)(C)C2CC1` (stereo not drawn), the outcome was inactive.

Consider `O=C(N=C1C(=O)C2(CCCCC2)C2(N=C(c3ccccc3)OC2=O)C12CCCCC2)c1ccccc1` (stereo not drawn), for which the pEC50 was < 4.56 and the pIC50 is 5.00.

`O=C1C2=C(/C=C/c3ccccc3)OCCC2=NN1c1ccccc1`: the pEC50 is < 4.37 and the pIC50 is 5.12.

As for `N#CC(C(=N/NC(N)=S)/C(=N\NC(N)=S)C(C#N)c1ccccc1)c1ccccc1` (stereo not drawn), the pEC50 is < 4.01 and the pIC50 was 4.32.

With `[Ni+2].c1nnc(N2CNCCNCN(c3nnc[n-]3)CNCCNC2)[n-]1`, the pEC50 is < 4.00 and the pIC50 is 4.01.

On to `O=C(O)CCSSc1ccc([N+](=O)[O-])cc1[N+](=O)[O-]`, for which the pEC50 was < 3.70 and the pIC50 is 4.80.

Consider `COC1/C=C\C=C(/C)C(=O)NC2=CC(=O)C=C(C2=O)C(OC)C(C)CC(OC)C(OC)C(C)/C=C(/C)C1OC(N)=O` (stereo not drawn), for which the pEC50 was < 4.20 and the pIC50 was 6.39.

On to `Clc1cc2nc(C3CCCO3)[nH]c2cc1Cl` (stereo not drawn), for which the pEC50 was < 3.70 and the pIC50 is 4.18.

On to `Cn1c(O)c(N=O)c(=O)[nH]c1=O`, for which the pEC50 is < 3.70 and the pIC50 was < 3.70.

Turning to `COc1cccc(/C=C2\SC(=S)N(/C=C3\C(=O)Oc4ccccc4C3=O)C2=O)c1O`, the pEC50 is < 3.70 and the pIC50 was 4.15.

Consider `CC1=C[C@H]2O[C@@H]3[C@H](O)[C@@H](O)[C@](C)(C2(COC(=O)CCl)CC1)[C@@]31CO1` (stereo partly drawn), for which the pEC50 is < 5.16 and the pIC50 was 7.75.

In the case of `O=C(O)/C=C\SCCCC(=O)O`, the pEC50 is < 2.88; the pIC50 is < 2.88 and 2.96.

Regarding `C[N+]12C=CC=C1C(N1CCCC1)c1sc(-c3ccc(Cl)cc3)cc12` (stereo not drawn), the pEC50 was < 3.70 and the pIC50 is 4.89.

In the case of `c1ccc(COc2cccc3cccnc23)cc1`, the pEC50 was < 3.60 and the pIC50 was 3.96.

Regarding `COC(=O)C1=CC(=O)C(C(=O)Nc2ccc(OC)cc2)C(c2ccccc2)O1` (stereo not drawn), the pEC50 is < 5.15 and the pIC50 was < 5.15.

`Cc1ccccc1[P+](Cc1ccccc1)(c1ccccc1)c1ccccc1C`: the pEC50 was < 3.70 and the pIC50 was 6.11.

Regarding `O=C1C=CC(=O)c2c1ccc1c3ccccc3n(-c3ccccc3)c21`, the pEC50 is < 4.65 and the pIC50 is 5.97.

For the compound `Cn1cc(S(=O)(=O)NC(=O)Nc2ccc(Cl)cc2)c2ccccc21`, the pEC50 is < 3.70 and the pIC50 was 4.56.

With `Cc1cc(N(CCC#N)S(=O)(=O)c2ccccc2)ccc1C=O`, the pEC50 is < 3.96 and the pIC50 was < 3.96.
